Data set [1] deals with PDGFRβ (Rattus norvegicus (Rat), UniProt Q05030). The data set can be described thus: PDGFRβ Cellular Assay (PDGFRb P-Y751 HTRF, PDGF-BB stimulated A10 cells). Type of data set: cell-based. The note with it: A10 cells, 3 hours compound, 15 ng/mL PDGFbb for 10 minutes; read-out: PDGFR Cellular IC50. The gist of the method: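 Rat A10 cells plated overnight were treated with compound for 3 h, stimulated with rat PDGF-BB (working stock 100 ng/mL in 10% FBS medium) for 10 min, then lysed.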
PDGFRβ, sequence (Q05030 whole entry, looked up): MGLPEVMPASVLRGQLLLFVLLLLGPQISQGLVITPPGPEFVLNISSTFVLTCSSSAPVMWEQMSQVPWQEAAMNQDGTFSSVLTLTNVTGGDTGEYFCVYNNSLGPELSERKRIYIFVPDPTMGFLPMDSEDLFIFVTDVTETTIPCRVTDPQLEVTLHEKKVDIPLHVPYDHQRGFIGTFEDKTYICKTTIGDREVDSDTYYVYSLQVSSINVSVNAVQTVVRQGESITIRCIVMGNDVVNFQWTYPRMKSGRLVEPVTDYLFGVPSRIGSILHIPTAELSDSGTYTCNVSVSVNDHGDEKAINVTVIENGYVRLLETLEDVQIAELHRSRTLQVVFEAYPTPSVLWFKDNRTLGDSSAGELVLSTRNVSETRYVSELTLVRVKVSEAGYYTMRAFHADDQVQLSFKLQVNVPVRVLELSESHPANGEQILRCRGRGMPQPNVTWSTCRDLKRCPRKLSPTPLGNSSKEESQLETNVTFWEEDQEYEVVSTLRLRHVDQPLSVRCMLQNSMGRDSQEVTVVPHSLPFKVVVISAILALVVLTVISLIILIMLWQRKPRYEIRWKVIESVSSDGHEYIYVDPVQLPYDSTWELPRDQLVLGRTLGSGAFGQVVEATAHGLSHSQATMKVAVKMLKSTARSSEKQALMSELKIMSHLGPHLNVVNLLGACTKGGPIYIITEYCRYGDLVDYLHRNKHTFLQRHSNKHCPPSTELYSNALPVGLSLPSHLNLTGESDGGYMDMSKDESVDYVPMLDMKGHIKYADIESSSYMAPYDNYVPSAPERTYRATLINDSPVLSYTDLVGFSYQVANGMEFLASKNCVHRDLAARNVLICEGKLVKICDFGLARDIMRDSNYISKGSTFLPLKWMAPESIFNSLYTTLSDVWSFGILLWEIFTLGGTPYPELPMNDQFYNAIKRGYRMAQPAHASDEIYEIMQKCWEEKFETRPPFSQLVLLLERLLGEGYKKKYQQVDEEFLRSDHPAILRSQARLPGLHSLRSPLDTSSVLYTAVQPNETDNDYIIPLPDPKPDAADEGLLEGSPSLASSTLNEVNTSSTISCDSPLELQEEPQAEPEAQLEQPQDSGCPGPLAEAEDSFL

Data set [2] addresses VEGFR2, unphosphorylated (Homo sapiens (Human), UniProt P35968). As to the kind of experiment: VEGFR ADP GLO assay. Type of data set: biochemical. Particulars: 5 nM VEGFR2, 1.2 mM ATP, 1 mg/mL Srctide, 180 min. In short, it runs like this: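 Luminescent ADP detection after a 180-min room-temperature reaction of srctide plus ATP (2 mg/mL and 2.4 mM in 2× mix) in pH 7.5 HEPES buffer with DTT, Pluronic and ovalbumin. Compounds, 11 points from 10 µM, first pre-incubated 30 min with enzyme (2× mix 10 nM). IC50s fitted after scaling between DMSO and 1 µM TAK-593 controls.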

For data set [3], the target named is Tb-labeled inactive PDGFRβ (Homo sapiens (Human), UniProt P09619). The data set can be described thus: biochemical. The note with it: read-out: PDGFR Lantha IC50. In kind it is binding.
Tb-labeled inactive PDGFRβ, sequence (P09619 whole entry, looked up): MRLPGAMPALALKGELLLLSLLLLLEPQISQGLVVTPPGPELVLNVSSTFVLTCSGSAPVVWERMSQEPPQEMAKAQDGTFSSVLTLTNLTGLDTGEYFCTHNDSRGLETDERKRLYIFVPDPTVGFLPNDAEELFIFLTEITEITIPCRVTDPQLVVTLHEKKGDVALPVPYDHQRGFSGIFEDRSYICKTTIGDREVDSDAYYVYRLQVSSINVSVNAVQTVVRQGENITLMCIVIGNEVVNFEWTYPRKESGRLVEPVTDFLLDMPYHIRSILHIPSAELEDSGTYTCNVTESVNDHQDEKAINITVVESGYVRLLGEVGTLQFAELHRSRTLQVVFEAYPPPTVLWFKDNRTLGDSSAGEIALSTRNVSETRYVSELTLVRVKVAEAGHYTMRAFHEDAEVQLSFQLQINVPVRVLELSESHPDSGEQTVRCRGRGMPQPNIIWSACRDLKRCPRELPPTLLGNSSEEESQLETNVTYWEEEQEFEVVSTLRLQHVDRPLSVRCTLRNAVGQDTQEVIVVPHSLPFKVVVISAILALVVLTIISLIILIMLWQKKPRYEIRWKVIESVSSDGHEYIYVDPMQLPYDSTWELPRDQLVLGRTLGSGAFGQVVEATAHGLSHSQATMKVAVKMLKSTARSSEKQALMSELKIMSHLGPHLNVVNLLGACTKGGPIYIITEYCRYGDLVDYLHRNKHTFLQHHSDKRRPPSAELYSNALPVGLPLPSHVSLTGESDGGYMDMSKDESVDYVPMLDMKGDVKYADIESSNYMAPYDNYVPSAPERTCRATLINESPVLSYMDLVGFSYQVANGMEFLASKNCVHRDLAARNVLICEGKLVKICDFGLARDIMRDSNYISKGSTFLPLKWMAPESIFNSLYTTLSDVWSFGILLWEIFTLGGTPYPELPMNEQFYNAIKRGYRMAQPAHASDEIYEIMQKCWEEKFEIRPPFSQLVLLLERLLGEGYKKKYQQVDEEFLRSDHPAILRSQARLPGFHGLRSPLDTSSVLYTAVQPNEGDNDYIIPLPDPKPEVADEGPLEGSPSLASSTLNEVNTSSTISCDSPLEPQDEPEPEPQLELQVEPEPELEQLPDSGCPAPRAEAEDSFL
The target of data set [4] is His6-TEV-PDGFRβ (557-1016) (Homo sapiens (Human), UniProt P09619). As to the kind of experiment: PDGFRβ HTRF Assay. The note with it: 800 μM ATP, 0.5 μM TK-substrate biotin peptide, 30 min pre-incubation, 3 hours reaction; read-out: PDGFR HTRF IC50. Type of data set: biochemical.
His6-TEV-PDGFRβ (557-1016), sequence (P09619 whole entry, looked up): as above
For data set [5] the following is noted: in vivo; cited from earlier work.

VEGFR2, unphosphorylated, sequence (P35968 whole entry, looked up): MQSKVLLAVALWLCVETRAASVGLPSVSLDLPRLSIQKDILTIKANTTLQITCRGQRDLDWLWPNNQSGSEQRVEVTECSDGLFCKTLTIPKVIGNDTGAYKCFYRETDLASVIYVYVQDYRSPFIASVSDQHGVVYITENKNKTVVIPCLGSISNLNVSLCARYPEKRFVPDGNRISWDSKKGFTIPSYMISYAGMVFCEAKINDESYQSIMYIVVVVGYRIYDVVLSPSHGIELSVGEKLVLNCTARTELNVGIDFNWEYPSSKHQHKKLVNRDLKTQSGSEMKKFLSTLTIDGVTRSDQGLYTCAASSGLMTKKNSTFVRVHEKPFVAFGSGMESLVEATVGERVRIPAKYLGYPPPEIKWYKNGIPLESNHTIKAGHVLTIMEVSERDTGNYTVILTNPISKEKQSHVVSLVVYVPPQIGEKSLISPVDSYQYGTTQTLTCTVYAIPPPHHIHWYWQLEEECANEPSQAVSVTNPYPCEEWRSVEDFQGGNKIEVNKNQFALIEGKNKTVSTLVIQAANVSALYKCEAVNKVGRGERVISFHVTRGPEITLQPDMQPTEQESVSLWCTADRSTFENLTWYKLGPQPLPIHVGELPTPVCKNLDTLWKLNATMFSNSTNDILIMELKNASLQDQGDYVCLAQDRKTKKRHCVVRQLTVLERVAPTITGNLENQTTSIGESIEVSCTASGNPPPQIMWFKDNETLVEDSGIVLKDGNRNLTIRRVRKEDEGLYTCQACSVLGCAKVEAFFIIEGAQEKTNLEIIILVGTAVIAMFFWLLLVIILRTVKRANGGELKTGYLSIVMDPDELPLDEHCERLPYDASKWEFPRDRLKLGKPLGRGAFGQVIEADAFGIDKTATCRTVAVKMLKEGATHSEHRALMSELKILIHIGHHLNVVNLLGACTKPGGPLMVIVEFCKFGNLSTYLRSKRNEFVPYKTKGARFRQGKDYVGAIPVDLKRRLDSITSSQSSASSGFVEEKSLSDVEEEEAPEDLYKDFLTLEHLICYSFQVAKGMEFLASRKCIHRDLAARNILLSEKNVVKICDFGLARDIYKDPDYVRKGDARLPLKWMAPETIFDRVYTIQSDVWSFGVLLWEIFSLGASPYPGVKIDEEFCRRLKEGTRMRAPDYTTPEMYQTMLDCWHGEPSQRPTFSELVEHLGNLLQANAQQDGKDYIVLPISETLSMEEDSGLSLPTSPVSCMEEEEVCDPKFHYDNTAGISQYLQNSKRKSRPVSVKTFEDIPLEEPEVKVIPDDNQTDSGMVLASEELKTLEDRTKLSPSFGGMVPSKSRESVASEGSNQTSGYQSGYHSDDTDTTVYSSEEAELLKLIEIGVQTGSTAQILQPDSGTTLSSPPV

For `COc1ncccc1Nc1ncc2c(Nc3cc(NC(=O)CN4CCC[C@@H]4C)cnc3C)nn(C)c2n1` [Example 146, (S)—N-(5-((6-((2-methoxypyridin-3-yl)amino)-1-methyl-1H-pyrazolo[3,4-d]pyrimidin-3-yl)amino)-6-methylpyridin-3-yl)-2-(2-methylpyrrolidin-1-yl)acetamide], the IC50 in data set [1] is 14.1 nM; in data set [2], > 7500 nM; in data set [3], 19.7 nM; in data set [4], 2.33 nM.
The corresponding values for `COCCn1cc(Nc2ncc3c(Nc4cc(C(=O)NCCN5CCCC56CCC6)cnc4C)nn(C)c3n2)cn1` [Example 147, N-(2-(5-azaspiro[3.4]octan-5-yl)ethyl)-5-((6-((1-(2-methoxyethyl)-1H-pyrazol-4-yl)amino)-1-methyl-1H-pyrazolo[3,4-d]pyrimidin-3-yl)amino)-6-methylnicotinamide] are 14.7 nM, 2670 nM, 2.1 nM and 0.38 nM.
Regarding `COCCn1cc(Nc2ncc3c(Nc4cc(C(=O)NCCN5CCCC5(C)C)cnc4C)nn(C)c3n2)cn1` [Example 148, N-(2-(2,2-dimethylpyrrolidin-1-yl)ethyl)-5-((6-((1-(2-methoxyethyl)-1H-pyrazol-4-yl)amino)-1-methyl-1H-pyrazolo[3,4-d]pyrimidin-3-yl)amino)-6-methylnicotinamide], the IC50 in data set [1] is 64.9 nM; in data set [2], > 7500 nM; in data set [3] it was 4.3 nM; in data set [4], 0.74 nM.
Taken in the same sequence, the figures for `Cc1ncc(C(=O)NCCN2CCC23CCC3)cc1Nc1nn(C)c2nc(Nc3cnn(C)c3)ncc12` [Example 149, N-(2-(1-azaspiro[3.3]heptan-1-yl)ethyl)-6-methyl-5-((1-methyl-6-((1-methyl-1H-pyrazol-4-yl)amino)-1H-pyrazolo [3,4-d]pyrimidin-3-yl)amino)nicotinamide] were 25.4 nM, 6560 nM, 2.2 nM and 0.36 nM.
For the compound `Cc1ncc(C(=O)NCCN2CCCCC23CC3)cc1Nc1nn(C)c2nc(Nc3cnn(C)c3)ncc12` [Example 150, N-(2-(4-azaspiro[2.5]octan-4-yl)ethyl)-6-methyl-5-((1-methyl-6-((1-methyl-1H-pyrazol-4-yl)amino)-1H-pyrazolo[3,4-d]pyrimidin-3-yl)amino)nicotinamide], the concentration for half-maximal inhibition (IC50) in data set [1] was determined as 4.3 nM; in data set [2], 1550 nM; in data set [3], 1.2 nM; in data set [4] it was 0.3 nM.
In the case of `Cc1ncc(C(=O)NCCN2CCCC23CCC3)cc1Nc1nn(C)c2nc(Nc3cnn(C)c3)ncc12` [Example 151, N-(2-(5-azaspiro[3.4]octan-5-yl)ethyl)-6-methyl-5-((1-methyl-6-((1-methyl-1H-pyrazol-4-yl)amino)-1H-pyrazolo[3,4-d]pyrimidin-3-yl)amino)nicotinamide], the IC50 turned out to be 4.8 nM in data set [1], 2960 nM in data set [2], 1.7 nM in data set [3] and 0.29 nM in data set [4].
Taken in the same sequence, the figures for `Cc1ncc(C(=O)NCCN(CCF)C2CCCC2)cc1Nc1nn(C)c2nc(Nc3cnn(C)c3)ncc12` [Example 152, N-(2-(cyclopentyl(2-fluoroethyl)amino)ethyl)-6-methyl-5-((1-methyl-6-((1-methyl-1H-pyrazol-4-yl)amino)-1H-pyrazolo[3,4-d]pyrimidin-3-yl)amino)nicotinamide] were 7.4 nM, 2530 nM, 3.4 nM and 0.45 nM.
The corresponding values for `Cc1ncc(C(=O)NCCN2C3CCC2CC3)cc1Nc1nn(C)c2nc(Nc3cnn(C)c3)ncc12` [Example 153, N-(2-(7-azabicyclo[2.2.1]heptan-7-yl)ethyl)-6-methyl-5-((1-methyl-6-((1-methyl-1H-pyrazol-4-yl)amino)-1H-pyrazolo[3,4-d]pyrimidin-3-yl)amino)nicotinamide] are 113 nM, > 7500 nM, 1.3 nM and 0.26 nM.
Taken in the same sequence, the figures for `Cc1nn(C)cc1Nc1ncc2c(Nc3cc(C(=O)NCCN4CCC5(CC5)C4)cnc3C)nn(C)c2n1` [Example 154, N-(2-(5-azaspiro[2.4]heptan-5-yl)ethyl)-5-((6-((1,3-dimethyl-1H-pyrazol-4-yl)amino)-1-methyl-1H-pyrazolo[3,4-d]pyrimidin-3-yl)amino)-6-methylnicotinamide] were 120 nM, > 7500 nM, 12 nM and 1.41 nM.
For the compound `Cc1ncc(C(=O)NCCN2CCC[C@@H]2C)cc1Nc1nn(C)c2nc(Nc3cnn(C)c3C)ncc12` [Example 155, (S)-5-((6-((1,5-dimethyl-1H-pyrazol-4-yl)amino)-1-methyl-1H-pyrazolo[3,4-d]pyrimidin-3-yl)amino)-6-methyl-N-(2-(2-methylpyrrolidin-1-yl)ethyl)nicotinamide], the 50% inhibitory concentration (IC50) in data set [1] is 169 nM; in data set [2], > 7500 nM; in data set [3] it was 15.5 nM; in data set [4] it was 1.98 nM.
Taken in the same sequence, the figures for `Cc1ncc(C(=O)NCCN2CCCC2(C)C)cc1Nc1nn(C)c2nc(Nc3cnn(C)c3C)ncc12` [Example 156, 5-((6-((1,5-dimethyl-1H-pyrazol-4-yl)amino)-1-methyl-1H-pyrazolo[3,4-d]pyrimidin-3-yl)amino)-N-(2-(2,2-dimethylpyrrolidin-1-yl)ethyl)-6-methylnicotinamide] were 19.7 nM, > 7500 nM, 20.2 nM and 2.15 nM.
The corresponding values for `Cc1ncc(C(=O)NCCN2CCCC2(C)C)cc1Nc1nn(C)c2nc(Nc3ccnn3C)ncc12` [Example 157, N-(2-(2,2-dimethylpyrrolidin-1-yl)ethyl)-6-methyl-5-((1-methyl-6-((1-methyl-1H-pyrazol-5-yl)amino)-1H-pyrazolo[3,4-d]pyrimidin-3-yl)amino)nicotinamide] are 110 nM, > 7500 nM, 32.9 nM and 3.39 nM.
Taken in the same sequence, the figures for `Cc1cc(Nc2ncc3c(Nc4cc(C(=O)NCCN5CCC[C@@H]5C)cnc4C)nn(C)c3n2)n(C)n1` [Example 158, (S)-5-((6-((1,3-dimethyl-1H-pyrazol-5-yl)amino)-1-methyl-1H-pyrazolo[3,4-d]pyrimidin-3-yl)amino)-6-methyl-N-(2-(2-methylpyrrolidin-1-yl)ethyl)nicotinamide] were 147 nM, > 7500 nM, 22.3 nM and 2.63 nM.
With `Cc1nn(C)cc1Nc1ncc2c(Nc3cc(C(=O)NCCN4CCC(C)(C)C4)cnc3C)nn(C)c2n1` [Example 159, 5-((6-((1,3-dimethyl-1H-pyrazol-4-yl)amino)-1-methyl-1H-pyrazolo[3,4-d]pyrimidin-3-yl)amino)-N-(2-(3,3-dimethylpyrrolidin-1-yl)ethyl)-6-methylnicotinamide], the 50% inhibitory concentration (IC50) was 60.7 nM in data set [1], > 7500 nM in data set [2], 13.3 nM in data set [3] and 1.5 nM in data set [4].
As to `Cc1nn(C)cc1Nc1ncc2c(Nc3cc(C(=O)NCCN4CCC[C@@H]4C)cnc3C)nn(C)c2n1` [Example 160, (S)-5-((6-((1,3-dimethyl-1H-pyrazol-4-yl)amino)-1-methyl-1H-pyrazolo[3,4-d]pyrimidin-3-yl)amino)-6-methyl-N-(2-(2-methylpyrrolidin-1-yl)ethyl)nicotinamide], the IC50 in data set [1] was 53.3 nM; in data set [2] it was > 7500 nM; in data set [3], 11.3 nM; in data set [4] it was 1.55 nM.
Taken in the same sequence, the figures for `Cc1nn(C)cc1Nc1ncc2c(Nc3cc(C(=O)NCCN4CCCC4(C)C)cnc3C)nn(C)c2n1` [Example 161, 5-((6-((1,3-dimethyl-1H-pyrazol-4-yl)amino)-1-methyl-1H-pyrazolo[3,4-d]pyrimidin-3-yl)amino)-N-(2-(2,2-dimethylpyrrolidin-1-yl)ethyl)-6-methylnicotinamide] were 24.8 nM, > 7500 nM, 13.3 nM and 1.65 nM.
The corresponding values for `Cc1ncc(C(=O)NCCN2CCCC2(C)C)cc1Nc1nn(C)c2nc(Nc3cnn4c3OCCC4)ncc12` [Example 163, 5-((6-((6,7-dihydro-5H-pyrazolo[5,1-b][1,3]oxazin-3-yl)amino)-1-methyl-1H-pyrazolo[3,4-d]pyrimidin-3-yl)amino)-N-(2-(2,2-dimethylpyrrolidin-1-yl)ethyl)-6-methylnicotinamide] are > 2000 nM, > 7500 nM, 805 nM and 86.4 nM.
Regarding `Cc1nc(Nc2ncc(C(=O)Nc3c(C)cccc3Cl)s2)cc(N2CCN(CCO)CC2)n1` [dasatinib], the “cardiotoxicity and development of pulmonary hypertension” value in data set [5] was “linked to cardiotoxicity and the development of pulmonary hypertension”.

The term IC50 denotes the concentration that inhibits the measured activity by half.
